The text below walks through data of US20240018105A1, “TROPOLONE DERIVATIVES AND TAUTOMERS THEREOF FOR IRON REGULATION IN ANIMALS” (Kinesid Therapeutics, Inc., priority 2019, published 2024).

Data set [1] is described as follows: Ligand facilitated Fe(III) efflux from liposomes. As to conditions: 10 uM ligand concentration; Table 1. An outline of the steps: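 POPC:cholesterol liposomes loaded with Fe(III)-citrate (pH 7.0), used at 1 mM phosphorus with 1 mM ferrozine outside. Ligand at 40–1.25 μM final, in triplicate; absorbance at 562 nm read every 60 s for 120 min. Efflux rate k from single-phase association fit, averaged over triplicates.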

In data set [2] the test system is DMT1-deficient Caco-2 cells. Nature of the data set: shDMT1-Caco2 55Fe transport assay. To be noted: Caco-2. It counts as cell-based. An outline of the steps: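 Transwell-differentiated (21–28 days) shDMT1 Caco-2 monolayers; apical serum-free DMEM/MES pH 6.5 with 200 nM 55Fe(III) plus compound, basolateral DMEM/HEPES/2% BSA pH 7.4, 37 °C. Basolateral 55Fe counted by scintillation; CPM over DMSO gives fc, and at 4 h fc at 3 µM is divided by hinokitiol's fc at 3 µM.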

A short description of data set [3]: Human liver microsomal stability assay. The data set is classed as in vitro ADME. As to conditions: human, microsomes. The source says: (§1) Compounds of the present disclosure were further evaluated in standard in vitro and in vivo Absorption, Distribution, Metabolism, Excretion (ADME) and Drug Metabolism and Pharmacokinetics (DMPK) assays to assess drug profiles important for further drug development.
(§2) Such assessments included human and mouse liver microsomal stability assays as well as 6-hour mouse PK studies.

Data set [4] is described as follows: Mouse liver microsomal stability assay. As to conditions: mouse, microsomes. It counts as in vitro ADME.
From the text: as §1, §2
A general note: Microsomes from liver hold many membrane-bound enzymes, among them those of drug oxidation.

The nature of the next data set: Mouse 6-hour PK study. To be noted: in vivo.
From the text: as §1, §2

The structures appear in SMILES notation. Bounds are passed on as bounds.

`O=c1cccc(-c2cnc(C3CC3)nc2)cc1O` [Ex.37]: the “Liposome Fe transport kefflux at 10 10 μM” value in data set [1] is reported as 5-7.5. Also, the “Caco2 shDMT1 transport FC @ 3 μM, 4h” value in data set [2] is given as 0.01-0.5. In data set [3], the half-life was greater than 2 h and the microsomal CLint was less than 11.6 µL/min/mg. For the same compound, in data set [4], the half-life was greater than 2 h and the microsomal CLint is less than 11.6 µL/min/mg. For the same compound, in “Mouse 6-hour PK study”, the exposure AUC(0-t) fell in the range of 1500 to 5000 ng·h/mL, the Cmax fell in the range of 500 to 1500 ng/mL, the half-life was in the range of 1.25 to 4.99 h and the “mouse 6-hour PK properties compared to hinokitiol” value is recorded as “one or more improved mouse 6-hour PK properties compared to hinokitiol”.

Take `Cc1ncc(-c2cccc(=O)c(O)c2)cc1F` [Ex.57, 4-(5-fluoro-6-methylpyridin-3-yl)-2-hydroxycyclohepta-2,4,6-trien-1-one]: the “Liposome Fe transport kefflux at 10 10 μM” value in data set [1] is recorded as 7.5-10. Further, the “Caco2 shDMT1 transport FC @ 3 μM, 4h” value in data set [2] was 0.01-0.5. In addition, in data set [3], the half-life was greater than 2 h and the microsomal CLint was less than 11.6 µL/min/mg. Moreover, in data set [4], the half-life was greater than 2 h and the intrinsic metabolic clearance (microsomal CLint) is less than 11.6 µL/min/mg. Further, in the data set “Mouse 6-hour PK study”, the AUC(0-t) was in the range of 1500 to 5000 ng·h/mL, the Cmax was 500 to 1500 ng/mL, the half-life lay within 1.25 to 4.99 h and the “mouse 6-hour PK properties compared to hinokitiol” value is “one or more improved mouse 6-hour PK properties compared to hinokitiol”.

The term half-life denotes how long it takes for the measured level to halve. The low end stands for fast loss, the high end for slow loss. One may read the microsomal CLint as the rate of metabolic loss divided by the concentration. Read a high microsomal CLint as rapid turnover. Usually AUC(0-t) stands for exposure summed from dosing to a finite time, without extrapolation to infinity. A word on the Cmax: it is the maximum level reached in the sampled fluid or tissue.
